Target: BTK recombinant protein (Homo sapiens (Human), UniProt Q06187)
Assay: Determination of biochemical BTK (Z'-LYTE kinase assay)
Text: Example 2 Determination of Biochemical BTK
1. Reagents and Materials
• BTK recombinant protein: Invitrogen, Cat #PV3363; • Z′-LYTE® kinase test kit-tyrosine 1 peptide: Invitrogen, Cat #PV3190; • 384-well low-flange black flat-bottomed polystyrene NBS microplate, no lid, no sterilization: Corning, Cat #3575; • 96-well polystyrene conical-bottomed MicroWell™ plate, sealed with a lid: Thermo Scientific™ Nunc™, Cat #277143; • Envision multi-mode plate reader: PerkinElmer; • Mixmate® shaker: Eppendorf; • TS-2102 shaking incubator: TENSUC; 2. Methods
Z′-LYTE® biochemical assay employs a fluorescence resonance energy transfer (FRET)-based, coupled-enzyme format and is based on the differential sensitivity of phosphorylated and non-phosphorylated peptides to proteolytic cleavage. Both ends of the short peptide substrate are labeled with two fluorescent groups to form a FRET paired combination. In the primary reaction (the Kinase Reaction), the kinase transfers the γ-phosphate of ATP to a single […] residue on the short peptide substrate. In the secondary reaction (the development reaction), the non-phosphorylated short peptides were recognized and cleaved by a site-specific protease (the development reagent). Phosphorylated short peptides can resist such cleavage. Cleavage of short peptides can disrupt the donor (such as coumarin) and receptor fluorophores (fluorescein) on the short peptides, while the phosphorylated short peptides can maintain FRET. The calculation method of the ratio is as follows, and the ratio of the respective emission signals generated by the donor fluorophores emitted (after excitation at 400 nm) to the receptors is calculated. Emission signal ratio=emitted light by coumarin (445 nm)/emitted light by fluorescein (520 nm). If the FRET short peptide is phosphorylated (such as no kinase inhibitor), the emitted light ratio will remain in a lower level. If the FRET short peptide is non-phosphorylated (such as kinase inhibitor), the emitted light ratio will be in a higher level. In this way, the inhibitory effects of different compound inhibitors on BTK kinase activity would be distinguished.
The experiment were carried out according to the instructions of the Z′-LYTE® kinase test kit-tyrosine 1 peptide. Reagent preparation: 1.33× kinase buffer: 5× kinase buffer was diluted with water to 1.33× kinase buffer; an enzyme solution: the kinase was dissolved in 1.33× kinase buffer with the final working concentration being 3.32 nM; a short peptide solution: a short peptide stock solution (1 mM dissolved in DMSO) was dissolved in 1.33× kinase buffer with the final working concentration being 2 μM; Z′-LYTE Tyr01 phosphorylated short peptide solution, 0.6 μl of stock solution (1 mM dissolved in DMSO) was dissolved in 149.4 μl of 1.33× kinase buffer; an ATP solution: an ATP stock solution (10 mM aqueous solution) was dissolved in 1.33× kinase buffer with the final working concentration being 32 μM; a color-developing solution: color-developing solution B was dissolved in color-developing buffer with the final working concentration being 1× color-developing solution; 4× compound preparation: the compound was diluted in 3-fold gradient concentration to finally obtain 4% DMSO aqueous solution containing different concentrations of the compound, with the final working concentration being 3000, 1000, 333.33, 111.11, 37.04, 12.35, 4.12, 1.37 nM, 8 concentration points in total.
Specific steps of the experiment: In the experiment, there were three control groups, each with 8 replicate wells, which were C1 100% inhibition group (no ATP), C2 0% inhibition group (with ATP), and C3 100% phosphorylation group, respectively. 2.5 μl of serially diluted compound was added to each well of a 384-well plate, with double replicate wells, and 4% DMSO solution was added to wells C1, C2, and C3. […]

Chain of BTK recombinant protein (Q06187 whole entry): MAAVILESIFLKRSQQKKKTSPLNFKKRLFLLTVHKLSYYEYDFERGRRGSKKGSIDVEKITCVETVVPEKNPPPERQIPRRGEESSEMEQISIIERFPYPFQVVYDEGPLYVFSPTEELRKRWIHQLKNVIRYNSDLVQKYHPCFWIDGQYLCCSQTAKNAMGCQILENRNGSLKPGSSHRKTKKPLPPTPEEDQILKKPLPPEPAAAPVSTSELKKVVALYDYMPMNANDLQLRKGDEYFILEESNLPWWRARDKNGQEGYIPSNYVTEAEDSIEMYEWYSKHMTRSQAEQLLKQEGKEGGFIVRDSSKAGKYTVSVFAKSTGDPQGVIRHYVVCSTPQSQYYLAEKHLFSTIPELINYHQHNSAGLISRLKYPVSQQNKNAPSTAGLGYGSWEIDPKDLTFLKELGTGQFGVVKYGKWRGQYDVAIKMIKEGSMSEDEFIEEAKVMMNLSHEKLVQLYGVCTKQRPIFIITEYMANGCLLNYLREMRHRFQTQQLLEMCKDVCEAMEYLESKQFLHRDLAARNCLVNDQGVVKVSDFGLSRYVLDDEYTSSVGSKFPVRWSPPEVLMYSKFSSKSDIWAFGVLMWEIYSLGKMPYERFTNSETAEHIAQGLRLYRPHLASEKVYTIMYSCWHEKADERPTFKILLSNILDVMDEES

IC50: 8 nM
Compound: C[C@H]1CN(C2COC2)CCN1c1ccc(Nc2cc(-c3ccnc(-n4ccn5c6c(cc5c4=O)CC(C)(C)C6)c3CO)cn(C)c2=O)nc1 [Compound 19]

Source: patent US12070457B2, “Substituted pyridines, pyridazines, pyrimidines, and 1,2,3-triazines as bruton's tyrosine kinase inhibitors” (HUTCHISON MEDIPHARMA LIMITED, priority 2020, dated 2024)
